Among the data in US8765940B2 (priority 2009, dated 2014) are Ki values, retold here.

Usually Ki stands for a dissociation constant, usually derived from enzyme kinetics or from competition with a known ligand. A low value points to tighter binding.

In the assay the target is PI3Kδ (Homo sapiens (Human), UniProt O00329). Format: biochemical. The conditions noted are these: PI3Kδ Alphascreen assay. Background: Bead proximity is the source of the signal in Alpha formats.
Chain of PI3Kδ (O00329 whole entry): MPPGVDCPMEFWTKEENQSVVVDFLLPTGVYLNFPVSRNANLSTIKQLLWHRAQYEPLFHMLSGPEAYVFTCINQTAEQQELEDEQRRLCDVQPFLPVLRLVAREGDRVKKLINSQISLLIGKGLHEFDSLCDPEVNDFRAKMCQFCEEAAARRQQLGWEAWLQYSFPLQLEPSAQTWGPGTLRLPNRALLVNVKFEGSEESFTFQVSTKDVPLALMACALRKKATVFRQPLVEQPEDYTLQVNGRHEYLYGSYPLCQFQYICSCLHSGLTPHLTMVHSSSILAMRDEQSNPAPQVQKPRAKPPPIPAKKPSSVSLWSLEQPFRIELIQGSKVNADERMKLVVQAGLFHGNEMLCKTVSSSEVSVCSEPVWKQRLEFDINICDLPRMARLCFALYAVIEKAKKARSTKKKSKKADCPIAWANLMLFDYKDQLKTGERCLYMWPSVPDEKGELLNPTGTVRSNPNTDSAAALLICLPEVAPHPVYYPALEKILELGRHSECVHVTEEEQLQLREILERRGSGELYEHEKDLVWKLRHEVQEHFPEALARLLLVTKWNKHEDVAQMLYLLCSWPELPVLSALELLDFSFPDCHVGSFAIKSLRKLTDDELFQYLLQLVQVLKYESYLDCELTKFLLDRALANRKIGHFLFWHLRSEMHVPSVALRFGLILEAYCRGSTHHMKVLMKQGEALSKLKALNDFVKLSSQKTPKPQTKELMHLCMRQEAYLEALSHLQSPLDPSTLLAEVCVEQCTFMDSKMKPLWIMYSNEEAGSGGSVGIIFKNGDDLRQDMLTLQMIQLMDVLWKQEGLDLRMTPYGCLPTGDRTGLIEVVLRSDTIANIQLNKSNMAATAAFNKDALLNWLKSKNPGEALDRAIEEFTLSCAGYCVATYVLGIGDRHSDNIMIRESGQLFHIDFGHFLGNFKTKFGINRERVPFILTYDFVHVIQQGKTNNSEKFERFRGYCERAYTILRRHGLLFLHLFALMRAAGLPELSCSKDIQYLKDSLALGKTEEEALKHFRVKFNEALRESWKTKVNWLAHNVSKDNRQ
Chain of PI3Kδ (P27986 whole entry partner): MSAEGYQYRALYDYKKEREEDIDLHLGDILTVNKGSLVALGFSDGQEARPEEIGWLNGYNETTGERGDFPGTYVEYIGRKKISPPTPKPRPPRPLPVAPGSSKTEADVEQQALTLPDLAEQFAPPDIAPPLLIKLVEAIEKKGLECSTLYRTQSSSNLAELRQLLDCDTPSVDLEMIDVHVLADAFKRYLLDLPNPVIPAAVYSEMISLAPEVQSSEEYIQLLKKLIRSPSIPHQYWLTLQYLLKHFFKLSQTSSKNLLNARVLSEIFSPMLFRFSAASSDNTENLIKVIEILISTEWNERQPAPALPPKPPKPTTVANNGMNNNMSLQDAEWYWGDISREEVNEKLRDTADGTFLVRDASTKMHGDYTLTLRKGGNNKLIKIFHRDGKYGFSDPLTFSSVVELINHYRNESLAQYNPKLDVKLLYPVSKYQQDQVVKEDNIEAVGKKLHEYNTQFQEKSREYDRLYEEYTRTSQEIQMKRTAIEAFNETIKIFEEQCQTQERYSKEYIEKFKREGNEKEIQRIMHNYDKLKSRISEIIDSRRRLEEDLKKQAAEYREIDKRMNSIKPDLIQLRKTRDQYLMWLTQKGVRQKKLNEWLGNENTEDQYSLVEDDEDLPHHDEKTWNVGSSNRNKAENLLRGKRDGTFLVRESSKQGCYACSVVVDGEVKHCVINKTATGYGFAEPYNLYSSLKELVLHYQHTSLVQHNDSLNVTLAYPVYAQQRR
`Cc1c(-c2ccccn2)nc2cc(F)ccc2c1N1CC(C)(C)c2ncc(N3CCOCC3)cc21` [4-(3,3-dimethyl-6-(4-morpholinyl)-2,3-dihydro-1H-pyrrolo[3,2-b]pyridin-1-yl)-7-fluoro-3-methyl-2-(2-pyridinyl)quinoline] had a Ki of 6.76 nM.
With `Cc1ccnc(-c2nc3cc(F)ccc3c(N3CC(C)(C)c4ncc(N5CCOCC5)cc43)c2C)c1` [4-(3,3-dimethyl-6-(4-morpholinyl)-2,3-dihydro-1H-pyrrolo[3,2-b]pyridin-1-yl)-7-fluoro-3-methyl-2-(4-methyl-2-pyridinyl)quinoline] the figure was 4.17 nM.
With `Cc1c(Nc2ccccn2)nc2cc(F)cc(F)c2c1N1CC(C)(C)c2ncc(N3CCOCC3)cc21` [4-(3,3-dimethyl-6-morpholino-2,3-dihydro-1H-pyrrolo[3,2-b]pyridin-1-yl)-5,7-difluoro-3-methyl-N-(pyridin-2-yl)quinolin-2-amine], affinity was put at a Ki of 17.1 nM.
With `Cc1c(-c2ccccn2)nc2ncccc2c1N1CCOc2ccc(N3CCOCC3)cc21` [4-(3-methyl-2-(2-pyridinyl)-1,8-naphthyridin-4-yl)-6-(4-morpholinyl)-3,4-dihydro-2H-1,4-benzoxazine], the Ki was determined as 883 nM.
On to `Cc1c(-c2ccccn2)nc2cc(F)ccc2c1N1CC(C)(C)c2nc(Br)c(N3CCOCC3)cc21` [4-(5-bromo-3,3-dimethyl-6-(4-morpholinyl)-2,3-dihydro-1H-pyrrolo[3,2-b]pyridin-1-yl)-7-fluoro-3-methyl-2-(2-pyridinyl)quinoline], for which the affinity, expressed as Ki, was 33.3 nM.
In the case of `Cc1ccnc(-c2nc3ncccc3c(N3CC(C)(C)c4nc(Cl)c(N5CCOCC5)cc43)c2C)c1` [4-(5-chloro-3,3-dimethyl-6-(4-morpholinyl)-2,3-dihydro-1H-pyrrolo[3,2-b]pyridin-1-yl)-3-methyl-2-(4-methyl-2-pyridinyl)-1,8-naphthyridine], the Ki came to 68.7 nM.
The molecule `Cc1c(-c2ccccn2)nc2cc(F)ccc2c1N1CC(C)(C)c2nc(Cl)c(N3CCOCC3)cc21` [4-(5-chloro-3,3-dimethyl-6-(4-morpholinyl)-2,3-dihydro-1H-pyrrolo[3,2-b]pyridin-1-yl)-7-fluoro-3-methyl-2-(2-pyridinyl)quinoline] yielded a Ki of 3.16 nM.
`Cc1c(-c2ccccc2F)nc2cccc(F)c2c1N1CCS(=O)(=O)c2ccc(N3CCOCC3)cc21` [4-(5-fluoro-2-(2-fluorophenyl)-3-methyl-4-quinolinyl)-6-(4-morpholinyl)-3,4-dihydro-2H-1,4-benzothiazine 1,1-dioxide] showed a Ki of 23.5 nM.
`Cc1c(-c2ccccn2)nc2cc(F)ccc2c1N1CC(C)(C)c2ncc(C3=CCOCC3)cc21` [4-(6-(3,6-dihydro-2H-pyran-4-yl)-3,3-dimethyl-2,3-dihydro-1H-pyrrolo[3,2-b]pyridin-1-yl)-7-fluoro-3-methyl-2-(2-pyridinyl)quinoline]: the Ki was found to be 6.47 nM.
`Cc1nc2ccc(Cl)cc2c(N2CCOc3ccc(N4CCOCC4)cc32)c1C` [4-(6-chloro-2,3-dimethyl-4-quinolinyl)-6-(4-morpholinyl)-3,4-dihydro-2H-1,4-benzoxazine] gave a Ki of 1260 nM. This Ki is about 190-fold higher than that of the molecule before.
As for `COc1cc2nc(C)c(C)c(N3CCS(=O)(=O)c4ccc(N5CCOCC5)cc43)c2cc1Cl` [4-(6-chloro-7-methoxy-2,3-dimethyl-4-quinolinyl)-6-(4-morpholinyl)-3,4-dihydro-2H-1,4-benzothiazine 1,1-dioxide], the affinity, expressed as Ki, was 28 nM.
The molecule `Cc1c(-c2ccccn2)nc2cc(F)ccc2c1N1CCOc2ccc(N3CCOCC3)cc21` [4-(7-fluoro-3-methyl-2-(2-pyridinyl)-4-quinolinyl)-6-(4-morpholinyl)-3,4-dihydro-2H-1,4-benzoxazine] yielded a Ki of 351 nM. This Ki lies about 13-fold higher than the previous one.
The molecule `Cc1c(-c2ccccn2)nc2cc(F)ccc2c1N1CC(C)(C)c2ccc(-c3nc(N)ncc3Cl)cc21` [5-chloro-4-(1-(7-fluoro-3-methyl-2-(2-pyridinyl)-4-quinolinyl)-3,3-dimethyl-2,3-dihydro-1H-indol-6-yl)-2-pyrimidinamine] had a Ki of 1430 nM. Compared with the last molecule, the Ki is about 4.1-fold higher.
Molecule `Cc1c(-c2ccccc2F)nc2cccc(Cl)c2c1N1CC(C)(C)c2ccc(N3CCOCC3)cc21` [5-chloro-4-(3,3-dimethyl-6-(4-morpholinyl)-2,3-dihydro-1H-indol-1-yl)-2-(2-fluorophenyl)-3-methylquinoline] registered a Ki of 890 nM. This Ki lies about 1.6-fold lower than the previous one.
In the case of `Cc1c(-c2ccccn2)nc2cc(F)ccc2c1N1CC2(CCOCC2)c2nc(Cl)c(N3CCOCC3)cc21` [5′-chloro-1′-(7-fluoro-3-methyl-2-(2-pyridinyl)-4-quinolinyl)-6′-(4-morpholinyl)-1′,2,2′,3,5,6-hexahydrospiro[pyran-4,3′-pyrrolo[3,2-b]pyridine]], the Ki was 13.3 nM.
`Cc1c(-c2cccc(=O)[nH]2)nc2cc(F)ccc2c1N1CC(C)(C)c2ncc(N3CCOCC3)cc21` [6-(4-(3,3-dimethyl-6-(4-morpholinyl)-2,3-dihydro-1H-pyrrolo[3,2-b]pyridin-1-yl)-7-fluoro-3-methyl-2-quinolinyl)-2(1H)-pyridinone] registered an inhibition constant (Ki) of 14.7 nM.
On to `Cc1nc2c(C)cccc2c(N2CC3(CCOCC3)c3ccc(N4CCOCC4)cc32)c1C` [6-(4-morpholinyl)-1-(2,3,8-trimethyl-4-quinolinyl)-1,2,2′,3′,5′,6′-hexahydrospiro[indole-3,4′-pyran]], for which the Ki was 121 nM.
`Cc1c(-c2cccc(O)n2)nc2cc(F)ccc2c1N1CC2(CCOCC2)c2ccc(N3CCOCC3)cc21` [6-(7-fluoro-3-methyl-4-(6-(4-morpholinyl)-2′,3′,5′,6′-tetrahydrospiro[indole-3,4′-pyran]-1(2H)-yl)-2-quinolinyl)-2-pyridinol] displayed a Ki of 155 nM.
Molecule `COc1cc2nc(C)c(C)c(N3CC4(CCOCC4)c4ccc(Br)cc43)c2cc1Cl` [6-bromo-1-(6-chloro-7-methoxy-2,3-dimethyl-4-quinolinyl)-1,2,2′,3′,5′,6′-hexahydrospiro[indole-3,4′-pyran]] returned a Ki of 571 nM.
Next, `Cc1nc2ccc(Cl)cc2c(N2CC(C)(C)c3ccc(-c4cn[nH]c4)cc32)c1C` [6-chloro-4-(3,3-dimethyl-6-(1H-pyrazol-4-yl)-2,3-dihydro-1H-indol-1-yl)-2,3-dimethylquinoline]: 9530 nM; `Cc1nc2c(C)cc(Cl)cc2c(N2CC(C)(C)c3ccc(N4CCOCC4)cc32)c1C` [6-chloro-4-(3,3-dimethyl-6-(4-morpholinyl)-2,3-dihydro-1H-indol-1-yl)-2,3,8-trimethylquinoline]: 618 nM.
Next, `COc1ccccc1-c1cc(N2CC(C)(C)c3ccc(N4CCOCC4)cc32)c2cc(Cl)ccc2n1` [6-chloro-4-(3,3-dimethyl-6-(4-morpholinyl)-2,3-dihydro-1H-indol-1-yl)-2-(2-methoxyphenyl)quinoline]: 5560 nM; `CCc1c(C)nc2ccc(Cl)cc2c1N1CC(C)(C)c2ccc(N3CCOCC3)cc21` [6-chloro-4-(3,3-dimethyl-6-(4-morpholinyl)-2,3-dihydro-1H-indol-1-yl)-3-ethyl-2-methylquinoline]: 1130 nM.
`Cc1c(C(F)(F)F)nc2ccc(Cl)cc2c1N1CC(C)(C)c2ccc(N3CCOCC3)cc21` [6-chloro-4-(3,3-dimethyl-6-(4-morpholinyl)-2,3-dihydro-1H-indol-1-yl)-3-methyl-2-(trifluoromethyl)quinoline] showed a Ki of 985 nM.
With `COc1cc2nc(C)c(C)c(N3CC(C)(C)c4ccc(N5CCOCC5)cc43)c2cc1Cl` [6-chloro-4-(3,3-dimethyl-6-(4-morpholinyl)-2,3-dihydro-1H-indol-1-yl)-7-methoxy-2,3-dimethylquinoline] the figure was 196 nM; with `COc1cc(N2CCOCC2)cc2c1ccn2-c1c(C)c(C)nc2ccc(Cl)cc12` [6-chloro-4-(4-methoxy-6-(4-morpholinyl)-1H-indol-1-yl)-2,3-dimethylquinoline], 3710 nM; with `COc1cc2nc(C)c(C)c(N3CC(C)(C)c4ccc(N5CCOCC5)c(C)c43)c2cc1Cl` [6-chloro-7-methoxy-2,3-dimethyl-4-(3,3,7-trimethyl-6-(4-morpholinyl)-2,3-dihydro-1H-indol-1-yl)quinoline], 3960 nM.
With `CC1(C)CN(c2c3c(nc4ccc(Cl)cc24)CCCC3)c2cc(N3CCOCC3)ccc21` [7-chloro-9-(3,3-dimethyl-6-(4-morpholinyl)-2,3-dihydro-1H-indol-1-yl)-1,2,3,4-tetrahydroacridine] the figure was 2620 nM; with `CC1(C)CN(c2c3c(nc4ccc(Cl)cc24)CCC3)c2cc(N3CCOCC3)ccc21` [7-chloro-9-(3,3-dimethyl-6-(4-morpholinyl)-2,3-dihydro-1H-indol-1-yl)-2,3-dihydro-1H-cyclopenta[b]quinoline], 772 nM.
Regarding `CC1(C)CN(c2c3c(nc4ccc(Cl)cc24)C(C)(C)CC3)c2cc(N3CCOCC3)ccc21` [7-chloro-9-(3,3-dimethyl-6-(4-morpholinyl)-2,3-dihydro-1H-indol-1-yl)-3,3-dimethyl-2,3-dihydro-1H-cyclopenta[b]quinoline], affinity was put at a Ki of 111 nM.
The molecule `Cc1cc(Cl)c2nc(C)c(C)c(N3CC(C)(C)c4ccc(N5CCOCC5)cc43)c2c1` [8-chloro-4-(3,3-dimethyl-6-(4-morpholinyl)-2,3-dihydro-1H-indol-1-yl)-2,3,6-trimethylquinoline] had an inhibition constant (Ki) of 3180 nM.
With `Cc1nc2c(Cl)cccc2c(N2CC(C)(C)c3ccc(N4CCOCC4)cc32)c1C` [8-chloro-4-(3,3-dimethyl-6-(4-morpholinyl)-2,3-dihydro-1H-indol-1-yl)-2,3-dimethylquinoline], the affinity corresponds to a Ki of 50 nM.
As to `Cc1c(-c2ccccn2)nc2cc(F)ccc2c1N1CC(CO)(CO)c2ccc(N3CCOCC3)cc21` [(1-(7-fluoro-3-methyl-2-(2-pyridinyl)-4-quinolinyl)-6-(4-morpholinyl)-2,3-dihydro-1H-indole-3,3-diyl)dimethanol], the affinity, expressed as Ki, was 154 nM.
Next, `COC(=O)N1CCN(c2nc3cc(F)cc(F)c3c(N3CC4(CCOCC4)c4ncc(N5CCOCC5)cc43)c2C)CC1` [methyl 4-(5,7-difluoro-3-methyl-4-(6′-(4-morpholinyl)-2,3,5,6-tetrahydrospiro[pyran-4,3′-pyrrolo[3,2-b]pyridin]-1′(2′H)-yl)-2-quinolinyl)-1-piperazinecarboxylate]: 1.49 nM.
